“And” between values parts separate entries of the source, which are not always exact repeats. Equal entries are not always repeated.
Key:
PDE4D2 = PDE4D2 (Homo sapiens, UniProt Q08499); assay: Off-target profiling panel; type: biochemical; details: read-out: Inhibition by MBE1 at 10 μM (%)
D2 = D2 (Homo sapiens, UniProt P14416); assay: Off-target profiling panel; type: binding; details: read-out: Inhibition by MBE1 at 10 μM (%)
5HT1B = 5HT1B (Homo sapiens, UniProt P28222); assay: Off-target profiling panel; type: binding; details: read-out: Inhibition by MBE1 at 10 μM (%)
TPX2 = target: T1, TPX2 (Homo sapiens, UniProt Q9ULW0); assay: Thermal proteome profiling (TPP) in A375 cells; type: cell-based; details: TPX2, 100 nM
T1 construct: Treated A375 cells were harvested from 10 × 15 cm plates; endogenous in cells; host or cells: A375 melanoma cells
T1 sequence (Q9ULW0 whole entry): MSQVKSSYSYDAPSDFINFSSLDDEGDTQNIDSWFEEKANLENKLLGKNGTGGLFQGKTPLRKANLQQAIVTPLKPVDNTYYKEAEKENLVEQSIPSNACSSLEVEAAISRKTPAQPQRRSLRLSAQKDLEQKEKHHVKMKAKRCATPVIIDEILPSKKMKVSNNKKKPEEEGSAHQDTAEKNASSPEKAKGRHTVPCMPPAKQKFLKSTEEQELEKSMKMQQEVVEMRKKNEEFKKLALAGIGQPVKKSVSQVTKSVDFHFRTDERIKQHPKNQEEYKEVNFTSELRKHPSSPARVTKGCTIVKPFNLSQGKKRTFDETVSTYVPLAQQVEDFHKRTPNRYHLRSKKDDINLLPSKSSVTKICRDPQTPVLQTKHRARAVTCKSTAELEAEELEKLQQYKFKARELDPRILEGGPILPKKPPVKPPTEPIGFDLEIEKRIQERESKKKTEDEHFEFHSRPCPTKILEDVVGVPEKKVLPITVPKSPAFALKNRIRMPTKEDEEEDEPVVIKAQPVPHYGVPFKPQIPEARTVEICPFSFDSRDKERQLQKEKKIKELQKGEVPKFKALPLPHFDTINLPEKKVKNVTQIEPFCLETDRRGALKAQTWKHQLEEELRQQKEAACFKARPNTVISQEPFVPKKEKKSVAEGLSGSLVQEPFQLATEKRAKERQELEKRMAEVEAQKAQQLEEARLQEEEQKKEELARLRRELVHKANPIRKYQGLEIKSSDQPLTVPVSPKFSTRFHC

hERG = hERG (Homo sapiens, UniProt Q12809); assay: Off-target profiling panel; type: binding; details: read-out: Inhibition by MBE1 at 10 μM (%)
T3-MCA tumors = assay: Tumor infiltrating immune cell profiling of T3-MCA tumors; details: oral gavage, 7 days of treatment
CDCP1 = target: T2, CDCP1 (Homo sapiens, UniProt Q9H5V8); assay: Thermal proteome profiling (TPP) in A375 cells; type: cell-based; details: CDCP1, 1 uM
T2 construct: Treated A375 cells were harvested from 10 × 15 cm plates; endogenous in cells; host or cells: A375 melanoma cells
T2 sequence (Q9H5V8 30-836): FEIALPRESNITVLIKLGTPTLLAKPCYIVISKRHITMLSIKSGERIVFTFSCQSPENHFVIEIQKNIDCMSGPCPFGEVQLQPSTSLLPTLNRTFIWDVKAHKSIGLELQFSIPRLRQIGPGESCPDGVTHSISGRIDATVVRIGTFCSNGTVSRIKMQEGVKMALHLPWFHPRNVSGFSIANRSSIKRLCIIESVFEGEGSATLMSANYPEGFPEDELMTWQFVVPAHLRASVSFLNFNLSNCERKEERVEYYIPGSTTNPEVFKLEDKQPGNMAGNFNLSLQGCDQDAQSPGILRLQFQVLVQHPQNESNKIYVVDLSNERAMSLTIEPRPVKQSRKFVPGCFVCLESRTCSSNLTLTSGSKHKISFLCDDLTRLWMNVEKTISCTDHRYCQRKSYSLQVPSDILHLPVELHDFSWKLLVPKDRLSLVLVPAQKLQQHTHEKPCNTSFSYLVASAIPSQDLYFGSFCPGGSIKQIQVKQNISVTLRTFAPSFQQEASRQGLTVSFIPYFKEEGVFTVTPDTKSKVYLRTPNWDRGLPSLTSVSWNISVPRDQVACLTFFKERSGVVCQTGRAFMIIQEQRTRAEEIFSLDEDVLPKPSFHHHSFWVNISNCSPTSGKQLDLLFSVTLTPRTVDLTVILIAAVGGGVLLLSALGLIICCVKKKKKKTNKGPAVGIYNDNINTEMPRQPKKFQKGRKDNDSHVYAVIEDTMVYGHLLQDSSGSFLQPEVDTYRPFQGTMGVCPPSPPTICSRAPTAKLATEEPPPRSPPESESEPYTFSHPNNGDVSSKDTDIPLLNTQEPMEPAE

HEK293 cells = assay: Metabolomic profiling of treated cell lines (raw metabolite counts); type: cell-based; details: HEK293_Inhibitor, replicates A-C
From the text: Supplement mmc8.xlsx, sheet "Supplement Table 7" | column: HEK293_Inhibitor_A; HEK293_Inhibitor_B; HEK293_Inhibitor_C

PDE3A = PDE3A (Homo sapiens, UniProt Q14432); assay: Off-target profiling panel; type: biochemical
Sequence of PDE3A (Q14432 whole entry): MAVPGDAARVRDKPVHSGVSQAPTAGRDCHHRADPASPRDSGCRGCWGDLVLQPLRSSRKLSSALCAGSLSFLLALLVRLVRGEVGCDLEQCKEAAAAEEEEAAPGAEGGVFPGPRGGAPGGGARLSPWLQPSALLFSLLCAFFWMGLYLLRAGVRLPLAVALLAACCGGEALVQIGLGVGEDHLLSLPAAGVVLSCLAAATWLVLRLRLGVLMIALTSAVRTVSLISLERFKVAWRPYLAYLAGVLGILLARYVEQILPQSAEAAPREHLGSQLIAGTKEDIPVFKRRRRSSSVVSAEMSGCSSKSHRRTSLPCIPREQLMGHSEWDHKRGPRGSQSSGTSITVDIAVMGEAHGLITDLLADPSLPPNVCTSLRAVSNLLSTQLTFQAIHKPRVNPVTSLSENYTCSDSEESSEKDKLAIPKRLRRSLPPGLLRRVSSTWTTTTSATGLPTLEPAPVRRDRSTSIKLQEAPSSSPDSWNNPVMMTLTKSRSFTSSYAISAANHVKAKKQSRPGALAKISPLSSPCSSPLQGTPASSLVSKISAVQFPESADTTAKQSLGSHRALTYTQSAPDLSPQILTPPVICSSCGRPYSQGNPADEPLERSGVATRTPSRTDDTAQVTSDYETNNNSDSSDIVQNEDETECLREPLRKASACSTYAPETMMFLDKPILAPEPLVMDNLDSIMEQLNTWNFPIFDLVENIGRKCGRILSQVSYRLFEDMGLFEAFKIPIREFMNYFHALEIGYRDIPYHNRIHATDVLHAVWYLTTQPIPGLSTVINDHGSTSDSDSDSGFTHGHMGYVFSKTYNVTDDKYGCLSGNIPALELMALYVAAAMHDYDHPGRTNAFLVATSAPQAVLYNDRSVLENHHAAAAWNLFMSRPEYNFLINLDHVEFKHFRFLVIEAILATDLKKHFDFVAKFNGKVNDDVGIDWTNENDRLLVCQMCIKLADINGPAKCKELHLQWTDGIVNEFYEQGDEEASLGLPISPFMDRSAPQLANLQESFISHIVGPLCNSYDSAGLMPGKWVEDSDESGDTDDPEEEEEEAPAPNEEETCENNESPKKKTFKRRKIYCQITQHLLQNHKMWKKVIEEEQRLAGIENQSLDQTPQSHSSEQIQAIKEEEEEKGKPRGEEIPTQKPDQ

NPTN = assay: Cellular thermal shift assay (CETSA) in A375 cells; type: cell-based, human; details: 100 nM, 1h at 37°C
Procedure: (§1) CETSA was performed according to protocols described before.[85] Briefly, 6 × 10cm dishes of A375 cells were collected and treated with 100 nM MBE1 or 0.1% DMSO for 1h at 37°C. Afterward, cells were pelleted through centrifugation at 300g for 5 min. Cells were then washed with ice-cold PBS and resuspended in 800 μL of PBS. Cell suspension was aliquoted to 7xPCR tubes with 100 μL each and subjected to thermal denaturation at 46.3, 48.6, 52.2, 56.5, 60.1, 62.5, 64.0°C for 3 min. The resulting sample was snap frozen in liquid nitrogen followed by incubation at room temperature until fully thawed. This procedure was performed twice followed by brief vortexing and mixing to release soluble proteins from the cells. Samples were then transferred to 1.5 mL Eppendorf tubes and centrifuged at 20,000g for 20 min at 4°C, 90 μL of the resulting supernatant was collected into another new 1.5 mL Eppendorf tube and subjected to protein analysis by western blot (WB). NPTN (proteintech #28022-1-AP) and ALDH1A3 (abcam #ab129815) were used to detect target proteins while GelCode Blue Stain Reagent (Thermofisher scientific #24590) was used to stain for total proteins loaded in the WB analysis.

ROBO1 = target: T3, ROBO1 (Homo sapiens, UniProt Q9Y6N7); assay: Thermal proteome profiling (TPP) in A375 cells; type: cell-based; details: ROBO1, 100 nM
T3 construct: Treated A375 cells were harvested from 10 × 15 cm plates; endogenous in cells; host or cells: A375 melanoma cells
T3 sequence (Q9Y6N7 26-1651): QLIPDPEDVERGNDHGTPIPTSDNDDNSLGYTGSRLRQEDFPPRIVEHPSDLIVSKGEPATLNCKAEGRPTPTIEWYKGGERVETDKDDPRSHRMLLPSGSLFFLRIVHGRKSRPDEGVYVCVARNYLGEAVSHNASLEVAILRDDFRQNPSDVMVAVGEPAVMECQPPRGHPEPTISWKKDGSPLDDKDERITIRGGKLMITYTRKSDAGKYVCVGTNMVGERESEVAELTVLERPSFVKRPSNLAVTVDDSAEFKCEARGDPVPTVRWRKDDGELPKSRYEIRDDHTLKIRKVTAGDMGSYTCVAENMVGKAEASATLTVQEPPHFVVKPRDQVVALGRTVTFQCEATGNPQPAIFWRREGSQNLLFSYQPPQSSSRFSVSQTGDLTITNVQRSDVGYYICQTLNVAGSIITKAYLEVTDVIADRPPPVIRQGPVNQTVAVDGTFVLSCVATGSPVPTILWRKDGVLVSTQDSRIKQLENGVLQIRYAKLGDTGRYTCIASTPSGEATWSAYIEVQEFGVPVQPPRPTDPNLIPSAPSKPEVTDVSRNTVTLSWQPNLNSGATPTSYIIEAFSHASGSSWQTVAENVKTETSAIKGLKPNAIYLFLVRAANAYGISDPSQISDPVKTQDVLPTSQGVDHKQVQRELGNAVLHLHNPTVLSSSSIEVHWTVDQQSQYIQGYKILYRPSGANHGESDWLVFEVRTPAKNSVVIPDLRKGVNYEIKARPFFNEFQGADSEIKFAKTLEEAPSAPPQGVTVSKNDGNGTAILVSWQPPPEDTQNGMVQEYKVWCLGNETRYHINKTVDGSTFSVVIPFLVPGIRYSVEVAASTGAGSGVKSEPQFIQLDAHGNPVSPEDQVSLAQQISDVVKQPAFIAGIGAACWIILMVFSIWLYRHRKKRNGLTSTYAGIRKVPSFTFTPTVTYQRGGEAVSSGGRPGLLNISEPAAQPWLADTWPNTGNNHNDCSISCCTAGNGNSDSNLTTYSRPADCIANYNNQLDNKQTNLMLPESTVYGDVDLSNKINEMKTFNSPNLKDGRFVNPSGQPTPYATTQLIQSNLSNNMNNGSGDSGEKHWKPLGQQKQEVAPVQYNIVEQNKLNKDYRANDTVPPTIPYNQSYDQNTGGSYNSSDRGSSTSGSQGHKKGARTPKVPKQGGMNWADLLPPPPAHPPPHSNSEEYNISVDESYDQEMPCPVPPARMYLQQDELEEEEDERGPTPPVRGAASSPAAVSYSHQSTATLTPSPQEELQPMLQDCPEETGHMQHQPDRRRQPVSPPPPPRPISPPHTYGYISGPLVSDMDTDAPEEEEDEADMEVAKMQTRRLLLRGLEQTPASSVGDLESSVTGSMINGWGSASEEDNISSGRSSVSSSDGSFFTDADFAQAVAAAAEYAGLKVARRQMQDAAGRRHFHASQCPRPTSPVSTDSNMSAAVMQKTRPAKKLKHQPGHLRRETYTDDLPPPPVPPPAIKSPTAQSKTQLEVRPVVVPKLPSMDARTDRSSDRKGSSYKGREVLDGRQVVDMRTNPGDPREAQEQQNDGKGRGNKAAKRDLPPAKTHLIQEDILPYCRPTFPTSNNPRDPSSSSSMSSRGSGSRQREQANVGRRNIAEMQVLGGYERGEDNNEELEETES

FAM204A = target: T4, FAM204A (Homo sapiens, UniProt Q9H8W3); assay: Thermal proteome profiling (TPP) in A375 cells; type: cell-based
T4 construct: Treated A375 cells were harvested from 10 × 15 cm plates; endogenous in cells; host or cells: A375 melanoma cells
T4 sequence (Q9H8W3 whole entry): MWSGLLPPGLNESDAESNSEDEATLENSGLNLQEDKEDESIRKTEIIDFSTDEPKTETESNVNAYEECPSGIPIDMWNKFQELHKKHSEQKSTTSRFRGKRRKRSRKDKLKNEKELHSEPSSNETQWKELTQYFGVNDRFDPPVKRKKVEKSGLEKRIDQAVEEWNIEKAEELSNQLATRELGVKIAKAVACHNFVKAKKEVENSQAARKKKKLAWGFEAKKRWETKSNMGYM

CB2 = CB2 (Homo sapiens, UniProt P34972); assay: Off-target profiling panel; type: binding; details: read-out: Inhibition by MBE1 at 10 μM (%)
ALDH1A3 = target: T5, ALDH1A3 (Homo sapiens, UniProt P47895); assay: Cellular thermal shift assay (CETSA) in A375 cells; type: cell-based; parameters: endogenous in cells; host or cells: A375 cells; details: 100 nM, 1h at 37°C
T5 sequence (P47895 1-512): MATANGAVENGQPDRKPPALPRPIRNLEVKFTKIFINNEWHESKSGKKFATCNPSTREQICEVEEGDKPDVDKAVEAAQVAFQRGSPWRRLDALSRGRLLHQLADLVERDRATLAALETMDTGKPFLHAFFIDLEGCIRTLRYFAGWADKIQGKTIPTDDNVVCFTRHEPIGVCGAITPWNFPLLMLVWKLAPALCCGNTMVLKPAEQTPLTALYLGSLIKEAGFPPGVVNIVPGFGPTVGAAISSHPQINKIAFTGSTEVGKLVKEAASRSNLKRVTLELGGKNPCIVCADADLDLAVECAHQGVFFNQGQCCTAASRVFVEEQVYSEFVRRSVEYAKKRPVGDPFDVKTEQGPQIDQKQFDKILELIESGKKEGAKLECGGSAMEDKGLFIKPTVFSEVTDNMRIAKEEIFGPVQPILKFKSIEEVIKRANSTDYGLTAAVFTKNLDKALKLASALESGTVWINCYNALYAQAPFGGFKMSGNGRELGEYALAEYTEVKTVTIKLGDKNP
Procedure: as §1

Ca2+-L = assay: Off-target profiling panel; type: binding; details: 10 μM
DAT = DAT (Homo sapiens, UniProt Q01959); assay: Off-target profiling panel; type: binding; details: read-out: Inhibition by MBE1 at 10 μM (%)

Sequence of D2 (P14416 whole entry): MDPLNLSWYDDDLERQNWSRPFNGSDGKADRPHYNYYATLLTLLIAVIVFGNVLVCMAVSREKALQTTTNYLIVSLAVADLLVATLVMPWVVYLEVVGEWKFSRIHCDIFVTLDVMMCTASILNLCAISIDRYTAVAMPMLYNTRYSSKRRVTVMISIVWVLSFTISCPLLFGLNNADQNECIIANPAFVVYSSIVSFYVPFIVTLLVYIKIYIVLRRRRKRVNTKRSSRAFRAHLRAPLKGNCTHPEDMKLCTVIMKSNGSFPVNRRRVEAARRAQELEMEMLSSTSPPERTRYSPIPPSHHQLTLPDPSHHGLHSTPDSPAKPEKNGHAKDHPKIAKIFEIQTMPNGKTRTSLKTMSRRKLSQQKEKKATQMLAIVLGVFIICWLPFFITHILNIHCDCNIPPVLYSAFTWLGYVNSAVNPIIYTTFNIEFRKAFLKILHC

Structure (SMILES): CCc1cnccc1C(=O)Nc1cc2c(cc1F)NC(=O)CC2 [MBE1, 3-ethyl-N-(7-fluoro-2-oxo-3,4-dihydro-1H-quinolin-6-yl)pyridine-4-carboxamide]
- inhibition at 10 µM (PDE4D2): 11.8%
- inhibition at 10 µM (D2): 1.45%
- inhibition at 10 µM (5HT1B): 5.26%
- 100nM MBE1 Tm (TPX2): 64
- DMSO-100nM MBE1 TM (TPX2): -7.655
- inhibition at 10 µM (hERG): -28.1%
- CD4 T cells as percentage of total CD45^+ immune cells (in words) (T3-MCA tumors): increased CD4 T cells
- ΔTm at 1 µM (CDCP1; A-375, read-out: DMSO-1uM MBE1 TM shift): -7.8 °C
- 1uM MBE1 Tm (CDCP1): 63.2685
- Raw counts of 2-Hydroxybutyric acid (HEK293 cells): 460406 and 376147 and 351707
- Raw counts of 3-Hydroxybutyric acid (HEK293 cells): 2036524 and 1752460 and 1814028
- Raw counts of 3-Phosphoglycerate (HEK293 cells): 54741.2 and 47239.6 and 67920.5
- Raw counts of 3-Phosphoserine (HEK293 cells): 379486 and 687080 and 597417
- Raw counts of 6-Phosphogluconate (HEK293 cells): 18526.1 and 6100.06 and 8926.16
- Raw counts of Carbamoyl phosphate (HEK293 cells): 141074 and 139557 and 164484
- Raw counts of Citrulline (HEK293 cells): 520045 and 463794 and 470630
- Raw counts of Cytidine (HEK293 cells): 7575.12 and 7385.3 and 7444.6
- Raw counts of Hypoxanthine (HEK293 cells): 234438 and 380137 and 398453
- Raw counts of Isoleucine (HEK293 cells): 1.16E+08 and 1.15E+08 (2×)
- Raw counts of Lactate (HEK293 cells): 5.47E+08 and 4.80E+08 and 4.40E+08
- Raw counts of Leucine (HEK293 cells): 9.35E+07 and 8.69E+07 and 8.73E+07
- Raw counts of Methionine (HEK293 cells): 2.07E+07 and 2.11E+07 and 2.08E+07
- Raw counts of N-acetyl-glutamine (HEK293 cells): 1122707 and 1247401 and 1071948
- Raw counts of Orotate (HEK293 cells): 98388.4 and 120085 and 73533.2
- Raw counts of Phenylalanine (HEK293 cells): 8.50E+07 and 7.66E+07 and 8.04E+07
- Raw counts of Phosphoenolpyruvate (HEK293 cells): 10515.5 and 13057.1 and 9934.64
- Raw counts of Pyridoxine (HEK293 cells): 4.65E+07 and 4.40E+07 and 4.42E+07
- Raw counts of Pyruvate (HEK293 cells): 7987114 and 6360434 and 6733166
- Raw counts of Ribitol (HEK293 cells): 2730293 and 2993915 and 2689879
- Raw counts of Sorbitol (HEK293 cells): 1.69E+07 and 1.55E+07 and 1.59E+07
- Raw counts of Taurine (HEK293 cells): 2.13E+07 and 2.37E+07 and 2.28E+07
- Raw counts of Tryptophan (HEK293 cells): 1.16E+07 and 1.11E+07 and 1.10E+07
- Raw counts of Tyrosine (HEK293 cells): 4.24E+07 and 4.04E+07 and 3.95E+07
- Raw counts of UDP (HEK293 cells): 175249 and 191418 and 196338
- Raw counts of Uracil (HEK293 cells): 1015162 and 942022 and 907732
- Raw counts of Uridine (HEK293 cells): 82140.1 and 83430.9 and 107857
- Raw counts of Valine (HEK293 cells): 7.12E+07 and 6.86E+07 and 6.72E+07
- Raw counts of Xanthine (HEK293 cells): 7637154 and 6442670 and 6627934
- inhibition at 10 µM (PDE3A; read-out: Inhibition by MBE1 at 10 μM (%)): 75.8%
- concentration for PDE3α interaction as multiple of IC50 against ALDH1A3 (PDE3A; screen against 44 off-target proteins): > 100 fold
- stabilization of NPTN in CETSA (in words) (NPTN): not stabilized
- 100nM MBE1 Tm (ROBO1): 63.1814
- DMSO-100nM MBE1 TM (ROBO1): -8.49
- 100nM MBE1 Tm (FAM204A): 63.4426
- DMSO-100nM MBE1 TM (FAM204A): -8.6993
- inhibition at 10 µM (CB2): 5.07%
- stabilization of ALDH1A3 in CETSA (in words) (ALDH1A3): increased stability and solubility at high temperatures
- Inhibition by MBE1 at 10 μM (%) (Ca2+-L): −0.09%
- inhibition at 10 µM (DAT): -13.1%
